The numbers were not newly measured in patent US20210386978A1, “Drug Delivery Devices and Systems for Local Drug Delivery to the Upper Urinary Tract” (TARIS Biomedical LLC, priority 2018, published 2021), which cites them from elsewhere.

Where a name gives a salt, the structure may show the parent alone.

For this data set the following is noted: solubility terms in the same block are defined in water at 37° C.

On to `Nc1ccn([C@@H]2O[C@H](CO)[C@@H](O)C2(F)F)c(=O)n1` [gemcitabine HCl], for which the approximate solubility is approximately 80 mg/mL.

As for `Nc1ccn([C@@H]2O[C@H](CO)[C@@H](O)C2(F)F)c(=O)n1` [gemcitabine base], the approximate solubility is recorded as approximately 15 mg/mL.

In the case of `Cc1ccc(O)c([C@H](CCN(C(C)C)C(C)C)c2ccccc2)c1` [tolterodine tartrate], the approximate solubility is recorded as approximately 12 mg/mL.

In the case of `O=C(O[C@H]1C[C@H]2CC[C@@H](C1)[N+]21CCCC1)C(O)(c1ccccc1)c1ccccc1` [trospium chloride], the approximate solubility was approximately 500 mg/mL.
